The values below come from patent US6552080B1, “Fungicidal compounds having a fluorovinyl-or fluoropropenyl-oxyphenyloxime moiety and process for the preparation thereof” (Korea Research Institute of Chemical Technology, priority 1999, dated 2003).

Read-outs that look alike come from different tables or passages of the source.

In one assay the test system is Puccinia recondita. Nature of the assay: Fungicidal activity against Wheat Leaf Rust (WLR) disease. It is filed as in vivo. Particulars: Wheat Leaf Rust.
The subject of a further assay is Botrytis cinerae. Description: Fungicidal activity against Cucumber Gray Mold Rot (CGM) disease. It is filed as in vivo. Particulars: Cucumber Gray Mold Rot; concentration 50 ppm. How it is done: Botrytis cinerae, which was isolated from cucumber infected thereby, was inoculated on a PDA agar medium and cultured under a 12L/12D cycle at 25° C. for 15 days to form spore. The spores were scraped, filtered through a gauze and then suspended in potato dextrose liquid medium at a concentration of 1×10^6 spore/ml. The spore suspension was sprayed on a cucumber plant having one leaf. The cucumber plant was held in a humidified room at 20° C. for 3 days. L.A. on a leaf was measured to calculate an C.V.

Assay [1] has as its system Pyricularia oryzae Carvara KA301. It is filed as in vivo. Particulars: Rice Blast.
Another assay relates to Phytophthora infestans. It is filed as in vivo. Particulars: Tomato Late Blight.
For another assay, the system named is Erysiphae graminis. Nature of the assay: Fungicidal activity against Barley Powdery Mildew (BPM) disease. It is filed as in vivo. Particulars: Barley Powdery Mildew.
The subject of another assay is Rhizoctonia solani AG-1. Description: Fungicidal activity against Rice Sheath Blight (RSB) disease. The settings on record: Rice Sheath Blight.

For the compound `CCOc1ccc(C=C(F)Oc2cccc(C=NOCc3ccccc3C(=NOC)C(=O)NC)c2)cc1` [Compound 36], the “WLR (Fungicidal Activities, C.V.)” value in the assay with Puccinia recondita (concentration 2 ppm) is on record as 0%; in the assay on Puccinia recondita (concentration 50 ppm) it was 93%. In addition, the “CGM (Fungicidal Activities, C.V.)” value in the assay with Botrytis cinerae is given as 0%. The “RCV (Fungicidal Activities, C.V.)” value in assay [1] (concentration 2 ppm) came to 88%; in assay [1] (concentration 50 ppm), 100%. Besides, the “TLB (Fungicidal Activities, C.V.)” value in the assay on Phytophthora infestans (concentration 50 ppm) was 0%. Further, the “BPM (Fungicidal Activities, C.V.)” value in the assay with Erysiphae graminis (concentration 2 ppm) came out at 0%; in the assay on Erysiphae graminis (concentration 50 ppm) it was 100%. The “RSB (Fungicidal Activities, C.V.)” value in the assay with Rhizoctonia solani AG-1 (concentration 50 ppm) came out at 0%.
Regarding `CNC(=O)C(=NOC)c1ccccc1CON=Cc1cccc(OC(F)=Cc2ccc(F)cc2)c1` [Compound 37], the “WLR (Fungicidal Activities, C.V.)” value was 37% in the assay on Puccinia recondita (concentration 2 ppm) and 98% in the assay on Puccinia recondita (concentration 50 ppm). Besides, in the assay with Botrytis cinerae, the “CGM (Fungicidal Activities, C.V.)” value is on record as 0%. The results for the “RCV (Fungicidal Activities, C.V.)” value in assay [1] (concentration 2 ppm) and in assay [1] (concentration 50 ppm) were 98% and 100%, respectively. The “TLB (Fungicidal Activities, C.V.)” value in the assay on Phytophthora infestans (concentration 50 ppm) is listed as 0%. Moreover, the “BPM (Fungicidal Activities, C.V.)” value with Erysiphae graminis (concentration 2 ppm) stood at 42%; in the assay on Erysiphae graminis (concentration 50 ppm), 100%. Also, in the assay on Rhizoctonia solani AG-1 (concentration 50 ppm), the “RSB (Fungicidal Activities, C.V.)” value turned out to be 29%.
On to `CNC(=O)C(=NOC)c1ccccc1CON=Cc1cccc(OC(F)=Cc2cccc(Cl)c2)c1` [Compound 38], for which the “WLR (Fungicidal Activities, C.V.)” value came out at 99% in the assay on Puccinia recondita (concentration 2 ppm) and 100% in the assay with Puccinia recondita (concentration 50 ppm). Moreover, the “CGM (Fungicidal Activities, C.V.)” value in the assay with Botrytis cinerae came to 0%. In addition, the “RCV (Fungicidal Activities, C.V.)” value amounted to 97% in assay [1] (concentration 2 ppm) and 100% in assay [1] (concentration 50 ppm). The “TLB (Fungicidal Activities, C.V.)” value in the assay with Phytophthora infestans (concentration 50 ppm) amounted to 0%. Further, the “BPM (Fungicidal Activities, C.V.)” value is listed as 87% with Erysiphae graminis (concentration 2 ppm) and 100% in the assay with Erysiphae graminis (concentration 50 ppm). For the same compound, the “RSB (Fungicidal Activities, C.V.)” value in the assay on Rhizoctonia solani AG-1 (concentration 50 ppm) amounted to 64%.
Take `CNC(=O)C(=NOC)c1ccccc1CON=Cc1cccc(OC(F)=Cc2ccc3c(c2)OCO3)c1` [Compound 39]: the figures for the “WLR (Fungicidal Activities, C.V.)” value with Puccinia recondita (concentration 2 ppm) and with Puccinia recondita (concentration 50 ppm) were 0% and 100%, respectively. Also, in the assay on Botrytis cinerae, the “CGM (Fungicidal Activities, C.V.)” value was determined as 0%. In addition, the “RCV (Fungicidal Activities, C.V.)” value in assay [1] (concentration 2 ppm) stood at 93%; in assay [1] (concentration 50 ppm), 100%. Besides, the “TLB (Fungicidal Activities, C.V.)” value in the assay with Phytophthora infestans (concentration 50 ppm) amounted to 83%. Further, the “BPM (Fungicidal Activities, C.V.)” value with Erysiphae graminis (concentration 2 ppm) stood at 0%; in the assay on Erysiphae graminis (concentration 50 ppm), 100%. Moreover, the “RSB (Fungicidal Activities, C.V.)” value in the assay with Rhizoctonia solani AG-1 (concentration 50 ppm) was 58%.
For the compound `CO/C=C(/C(=O)OC)c1ccccc1CON=C(C)c1cccc(OC(F)=Cc2ccccc2)c1` [Compound 40, Methyl (2E)-3-Methoxy-2-{2′-[[[3″-(1′″-fluoro-2′″-phenyl-1′″-ethenyloxy)phenyl]methylimino]oxy]methylphenyl}propenoate], the entries for the “WLR (Fungicidal Activities, C.V.)” value with Puccinia recondita (concentration 2 ppm), with Puccinia recondita (concentration 10 ppm) and in the assay with Puccinia recondita (concentration 50 ppm) were 99%, 100% and 100%, respectively. Moreover, in the assay with Botrytis cinerae, the “CGM (Fungicidal Activities, C.V.)” value worked out at 75%. For the same compound, the entries for the “RCV (Fungicidal Activities, C.V.)” value in assay [1] (concentration 2 ppm), in assay [1] (concentration 10 ppm) and in assay [1] (concentration 50 ppm) were 99%, 100% and 100%, respectively. Besides, the “TLB (Fungicidal Activities, C.V.)” value in the assay on Phytophthora infestans (concentration 2 ppm) is on record as 12%; with Phytophthora infestans (concentration 10 ppm) it was 68%; in the assay with Phytophthora infestans (concentration 50 ppm), 97%. Further, the “BPM (Fungicidal Activities, C.V.)” value in the assay with Erysiphae graminis (concentration 2 ppm), in the assay on Erysiphae graminis (concentration 10 ppm) and in the assay on Erysiphae graminis (concentration 50 ppm) was 100% each time. For the same compound, the “RSB (Fungicidal Activities, C.V.)” value with Rhizoctonia solani AG-1 (concentration 2 ppm) is reported as 70%; in the assay with Rhizoctonia solani AG-1 (concentration 10 ppm) it was 75%; in the assay on Rhizoctonia solani AG-1 (concentration 50 ppm) it was 95%.
As for `COC=C(C(=O)OC)c1ccccc1CON=C(C)c1cccc(OC(F)=Cc2cccc(C)c2)c1` [Compound 41], the “WLR (Fungicidal Activities, C.V.)” value is given as 99% in the assay with Puccinia recondita (concentration 2 ppm), 100% in the assay on Puccinia recondita (concentration 10 ppm) and 100% with Puccinia recondita (concentration 50 ppm). The “CGM (Fungicidal Activities, C.V.)” value in the assay on Botrytis cinerae amounted to 51%. For the same compound, the “RCV (Fungicidal Activities, C.V.)” value turned out to be 98% in assay [1] (concentration 2 ppm), 100% in assay [1] (concentration 10 ppm) and 100% in assay [1] (concentration 50 ppm). Also, the results for the “TLB (Fungicidal Activities, C.V.)” value with Phytophthora infestans (concentration 2 ppm), in the assay with Phytophthora infestans (concentration 10 ppm) and with Phytophthora infestans (concentration 50 ppm) were 6%, 25% and 96%, respectively. Further, the “BPM (Fungicidal Activities, C.V.)” value with Erysiphae graminis (concentration 2 ppm), with Erysiphae graminis (concentration 10 ppm) and in the assay with Erysiphae graminis (concentration 50 ppm) was 100% each time. Moreover, the “RSB (Fungicidal Activities, C.V.)” value was 55% in the assay with Rhizoctonia solani AG-1 (concentration 2 ppm), 70% in the assay with Rhizoctonia solani AG-1 (concentration 10 ppm) and 95% with Rhizoctonia solani AG-1 (concentration 50 ppm).
